Broadly, the Ki is the equilibrium dissociation constant of an inhibitor or competing ligand from its target. Higher therefore signals lower affinity.

The target in this assay is T1, OX2R (Homo sapiens, UniProt O43614).
T1 construct: expressed in transfected cells; host or cells: CHO cells (membranes)
T1 sequence (O43614 1-444): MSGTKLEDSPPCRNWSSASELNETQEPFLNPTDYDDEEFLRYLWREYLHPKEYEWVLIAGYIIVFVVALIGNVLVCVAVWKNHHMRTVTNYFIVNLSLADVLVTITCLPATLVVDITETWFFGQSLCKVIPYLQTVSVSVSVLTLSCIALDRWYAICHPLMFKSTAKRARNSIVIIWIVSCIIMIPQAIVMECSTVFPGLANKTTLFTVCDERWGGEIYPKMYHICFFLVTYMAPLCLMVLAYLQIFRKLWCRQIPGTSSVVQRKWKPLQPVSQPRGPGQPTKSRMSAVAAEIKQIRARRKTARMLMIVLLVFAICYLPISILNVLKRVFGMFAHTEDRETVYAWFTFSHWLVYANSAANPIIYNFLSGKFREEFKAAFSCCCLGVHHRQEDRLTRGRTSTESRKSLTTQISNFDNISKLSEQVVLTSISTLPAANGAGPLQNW
The assay is described as follows: radioligand binding assay, OX2 receptor. To be noted: membranes prepared from CHO cells expressing the OX2 receptor. Here is the method:
In a typical experiment the OX1 and OX2 receptor antagonistic activity of the compounds of the present invention was determined in accordance with the following experimental method. For intracellular calcium measurements, Chinese hamster ovary (CHO) cells expressing the rat orexin-1 receptor or the human orexin-2 receptor, are grown in Iscove's modified DMEM containing 2 mM L-glutamine, […], 1% hypoxanthine-thymidine supplement, 100 U/ml penicillin, 100 ug/ml streptomycin and 10% heat-inactivated fetal calf serum (FCS). The cells are seeded at 20,000 cells/well into Becton-Dickinson black 384-well clear bottom sterile plates coated with poly-D-lysine. All reagents were from GIBCO-Invitrogen Corp. The seeded plates are incubated overnight at 37° C. and 5% CO2. Ala-6,12 human orexin-A as the agonist is prepared as a 1 mM stock solution in 1% bovine serum albumin (BSA) and diluted in assay buffer (HBSS containing 20 mM HEPES, 0.1% BSA and 2.5 mM probenecid, pH7.4) for use in the assay at a final concentration of 70 pM. Test compounds are prepared as 10 mM stock solution in DMSO, then diluted in 384-well plates, first in DMSO, then assay buffer. On the day of the assay, cells are washed 3 times with 100 ul assay buffer and then incubated for 60 min (37° C., 5% CO2) in 60 ul assay buffer containing 1 uM Fluo-4AM ester, 0.02% pluronic acid, and 1% BSA. The dye loading solution is then aspirated and cells are washed 3 times with 100 ul assay buffer. 30 ul of that same buffer is left in each well. Within the Fluorescent Imaging Plate Reader (FLIPR, Molecular Devices), test compounds are added to the plate in a volume of 25 ul, incubated for 5 min and finally 25 ul of agonist is added. Fluorescence is measured for each well at 1 second intervals for 5 minutes and the height of each fluorescence peak is compared to the height of the fluorescence peak induced by 70 pM Ala-6,12 orexin-A with buffer in place of antagonist. For each antagonist, IC50 value (the concentration of compound needed to inhibit 50% of the agonist response) is determined. Alternatively, compound potency can be assessed by a radioligand binding assay (described in Bergman et. al. Bioorg. Med. Chem. Lett. 2008, 18, 1425-1430) in which the inhibition constant (Ki) is determined in membranes prepared from CHO cells expressing either the OX1 or OX2 receptor. The intrinsic orexin receptor antagonist activity of a compound which may be used in the present invention may be determined by these assays.
Regarding “5-(3,5-chloromethylphenyl)-N-[(1,4-dimethyl-1,2,3,4-tetrahydroquinoxalin-6-yl)methyl]-2-(1-methyl-1H-pyrazol-4-yl)nicotinamide [2-14]”, the Ki stood at 0.15 nM.

Turning to `COc1cc(CNC(=O)c2cc(-c3cc(C)cc(C)c3)cnc2-c2cnn(C)c2)cnc1OC` [1-13, N-[(5,6-dimethoxypyridin-3-yl)methyl]-5-(3,5-dimethylphenyl)-2-(1-methyl-1H-pyrazol-4-yl)nicotinamide], the Ki was 4.8 nM.

Molecule `Cc1[nH]c2cc(CNC(=O)c3cc(-c4cc(Cl)cc(Cl)c4)cnc3-c3cnn(C)c3)ccc2c1C` [1-14, 5-(3,5-dichlorophenyl)-N-[(2,3-dimethyl-1H-indol-6-yl)methyl]-2-(1-methyl-1H-pyrazol-4-yl)nicotinamide] yielded a Ki of 0.07 nM.

Molecule `COc1ccc(CNC(=O)c2cc(-c3cncc(C)c3)cnc2-c2cccc(F)c2)nc1OC` [3-7, N-[(5,6-dimethoxypyridin-2-yl)methyl]-6-(3-fluorophenyl)-5′-methyl-3,3′-bipyridine-5-carboxamide] yielded a Ki of 0.32 nM.

Take `COc1ccc(CNC(=O)c2cc(-c3cncc(Cl)c3)cnc2-c2ccccc2)nc1OC` [3-15, 5′-chloro-N-[(5,6-dimethoxypyridin-2-yl)methyl]-6-phenyl-3,3′-bipyridine-5-carboxamide]: the affinity corresponds to a Ki of 0.45 nM.

Regarding `COc1ccc(CNC(=O)c2cc(-c3cc(C)cc(Cl)c3)cnc2N2CCCC2)cc1OC` [4-5, 5-(3-chloro-5-methylphenyl)-N-(3,4-dimethoxybenzyl)-2-pyrrolidin-1-ylnicotinamide], the Ki came out at 0.45 nM. In other words, the sub-nanomolar range.

As to `COc1ccc(CNC(=O)c2cc(-c3cncc(C)c3)cnc2N2CCOCC2)nc1OC` [4-13, N-[(5,6-dimethoxypyridin-2-yl)methyl]-5′-methyl-6-morpholin-4-yl-3,3′-bipyridine-5-carboxamide], the Ki stood at 1.1 nM.

The molecule `COc1ccc(CNC(=O)c2cc(-c3cncc(C)c3)cnc2-n2ccc(C)n2)cc1Cl` [5-11, N-(3-chloro-4-methoxybenzyl)-5′-methyl-6-(3-methyl-1H-pyrazol-1-yl)-3,3′-bipyridine-5-carboxamide] had a Ki of 0.95 nM.

Take `COc1ccc(CNC(=O)c2cc(-c3cncc(C)c3)cnc2C2CCCC2)cc1OC` [6-5, 6-cyclopentyl-N-(3,4-dimethoxybenzyl)-5-methyl-3,3′-bipyridine-5-carboxamide]: affinity was put at a Ki of 2.3 nM.

Source of the values: patent US8003797B2, “Pyridine carboxamide orexin receptor antagonists” (Merck Sharp & Dohme Corp., priority 2007, dated 2011).
